From patent US20260021132A1, “PHARMACOLOGICAL THERAPY FOR MITOCHONDRIAL DNA DEPLETION DELETIONS SYNDROME INVOLVING MUTATIONS IN THE GUK1 GENE” (The Trustees of Columbia University in the City of New York, priority 2023, published 2026)

What was measured:
[1] = test system: GUK1 patient fibroblasts; test: mtDNA content of proliferating GUK1 patient fibroblasts (quantitative Real-Time PCR, mtDNA/nDNA); format: cell-based, human; conditions: three different GUK1 patient proliferating fibroblasts, FIG. 3B
Description: Levels of mtDNA were measured by quantitative Real-Time PCR (in triplicate) and expressed as mtDNA/nDNA (12S/RNase P) and levels are expressed as percent relative to control fibroblast mtDNA. * indicates p<0.05. P values determined by Mann-Whitney U test. Initially, GUK1 mutant patient fibroblasts will be supplemented with dG. Based on published reports of deoxynucleoside supplementation for rescue of other models of mtDNA depletion, fibroblast culture media will be supplemented with dG at concentrations ranging from 1 μM to 400 μM (Camara, et al. 2014; Pontarin, et al. 2012; […], et al. 2003; Bulst, et al. 2012). Throughout each experiment, fibroblasts will be actively proliferating to emphasize use of the de novo dNTP synthesis pathway. The primary outcome measure will be mtDNA copy number comparing untreated and dG-supplemented fibroblasts. To complement the mtDNA results, it will be determined whether the mitochondrial dGTP concentration increases with dG supplementation by measuring mitochondrial dNTP pools. As a functional measure of mitochondrial rescue in treated fibroblasts, we will also measure OxPhos activity.

[2] = mice; cited from earlier work
[3] = test system: dGK-deficient fibroblasts; conditions: cited from earlier work

SMILES | mtDNA as compared to untreated ([1]; forodesine at 1 mM alone) | circulating dG [2] | efficacy of purine supplementation [3] | mtDNA as compared to untreated ([1]; dG at 1 μM alone)
O=c1[nH]cnc2c([C@@H]3N[C@H](CO)[C@@H](O)[C@H]3O)c[nH]c12 [forodesine] | increase | can increase circulating dG | enhances the efficacy of purine supplementation | –
Nc1nc2c(ncn2[C@H]2C[C@H](O)[C@@H](CO)O2)c(=O)[nH]1 [dG, deoxyguanosine] | – | – | – | increase
